# Reference: patent US8921398B2 (Boehringer Ingelheim International GmbH, priority 2011, dated 2014)
# Target: T1, human GPR119 (Homo sapiens, UniProt Q8TDV5)
# T1 construct: expression vector for human GPR119 cDNA (Acc. No. NP_848566); expressed in transfected cells
# T1 sequence (Q8TDV5 1-335): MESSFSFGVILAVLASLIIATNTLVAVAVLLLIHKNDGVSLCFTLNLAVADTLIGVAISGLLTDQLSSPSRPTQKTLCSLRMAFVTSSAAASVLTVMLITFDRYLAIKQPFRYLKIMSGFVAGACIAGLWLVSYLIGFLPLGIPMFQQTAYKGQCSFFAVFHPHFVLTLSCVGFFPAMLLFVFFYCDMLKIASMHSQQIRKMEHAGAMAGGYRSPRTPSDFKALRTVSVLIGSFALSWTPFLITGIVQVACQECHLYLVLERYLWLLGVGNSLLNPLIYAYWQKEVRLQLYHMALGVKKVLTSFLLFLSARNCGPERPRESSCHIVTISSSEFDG
# Assay: AlphaScreen cAMP assay in MIN6 cells stably transfected with human GPR119
# Format: cell-based
# Settings: Min-6/hGPR119 cells, 45 minutes incubation at room temperature
# Method: The compounds of formula I according to the invention modulate the activity of the G-protein-coupled receptor GPR119. The effect of the compounds on the activation of GPR119 and on the stimulation of intracellular cAMP concentration is determined using the AlphaScreen cAMP Assay Kit (Cat.No.#6760625R) made by PerkinElmer.
# MIN6 cells [Miyazaki J et al. Endocrinology. 1990 July; 127(1):126-32] are stably transfected with an expression vector for human GPR119 cDNA (Acc. No. NP_848566). Min-6/hGPR119 cells are cultured in DMEM, 10% FBS, 50 μM β-mercaptoethanol, 0.3 mg/mL Geniticin, 2 mM GlutaMAX at 37° C. 5% CO2. For the assay, the cells are seeded in Optiplates (white, 384-well, 160W-barcoded, TC, sterile with lid, Cat.No.#6007688 (Perkin Elmer); 10000 cells/well; 50 μl). The plates covered with lids are then incubated for 24 hours at 37° C./5% CO2. After the medium is aspirated from the wells completely, 10 μl of the test compound are added, the compounds are diluted using stimulating buffer (140 mM NaCl, 3.6 mM KCl, 0.5 mM NaH2PO4, 0.5 mM MgSO4, 1.5 mM CaCl2, 10 mM Hepes, 5 mM NaHCO3; pH 7.4. 0.5 mM IBMX and 0.1% BSA, the final DMSO concentration is 1%). After 45 minutes incubation at room temperature (approx. 20° C.), the cAMP concentrations are determined using the AlphaScreen cAMP Assay Kit (Cat.No.#6760625R from PerkinElmer).
row,EC50,SMILES
1,118 nM,"CCc1cnc(N2CCC(N(C(=O)c3cnc(-c4ccc(CC#N)cc4)nc3)C3CC3)CC2)nc1 [Example 5, 2-(4-Cyanomethyl-phenyl)-pyrimidine-5-carboxylic acid cyclopropyl-[1-(5-ethyl-pyrimidin-2-yl)-piperidin-4-yl]-amide]"
2,964 nM,"CCc1cnc(N2CCC(N(C(=O)c3ccc(-n4ccnc4)nn3)C3CC3)CC2)nc1 [Example 17, 6-Imidazol-1-yl-pyridazine-3-carboxylic acid cyclopropyl-[1-(5-ethyl-pyrimidin-2-yl)-piperidin-4-yl]-amide]"
3,97 nM,"Cc1cnc(N2CCC(N(C(=O)c3cnc(-n4ccnc4C)nc3)C3CC3)CC2)cn1 [Example 19, 2-(2-Methyl-imidazol-1-yl)-pyrimidine-5-carboxylic acid cyclopropyl-[1-(5-methyl-pyrazin-2-yl)-piperidin-4-yl]-amide]"
4,27 nM,"CCc1cnc(N2CCC(N(C(=O)c3ccc(-c4cnco4)nc3)C3CC3)CC2)nc1 [Example 34, N-Cyclopropyl-N-[1-(5-ethyl-pyrimidin-2-yl)-piperidin-4-yl]-6-oxazol-5-yl-nicotinamide]"
5,94 nM,CCc1cnc(N2CCC(N(C(=O)c3cnc(-c4ccc(C#N)c(F)c4)nc3)C3CC3)CC2)nc1 [Example 4]
6,11 nM,"O=C(c1cnc(-c2ccncc2)nc1)N(C1CC1)C1CCN(c2nc(-c3ccccc3)no2)CC1 [Example 2, 2-Pyridin-4-yl-pyrimidine-5-carboxylic acid cyclopropyl-[1-(3-phenyl-[1,2,4]oxadiazol-5-yl)-piperidin-4-yl]-amide]"
7,159 nM,"CCCc1noc(N2CCC(N(C(=O)c3cnc(-c4ccc(S(C)(=O)=O)cc4)nc3)C3CC3)CC2)n1 [Example 16, 2-(4-Methanesulfonyl-phenyl)-pyrimidine-5-carboxylic acid cyclopropyl-[1-(3-propyl-[1,2,4]oxadiazol-5-yl)-piperidin-4-yl]-amide]"
8,123 nM,"CCCc1noc(N2CCC(N(C(=O)c3cnc(-n4ccnc4)nc3)C3CC3)CC2)n1 [Example 21, 2-Imidazol-1-yl-pyrimidine-5-carboxylic acid cyclopropyl-[1-(3-propyl-[1,2,4]oxadiazol-5-yl)-piperidin-4-yl]-amide]"
9,14 nM,"CC(C)(C)c1noc(N2CCC(N(C(=O)c3cnc(-c4cnco4)cn3)C3CC3)CC2)n1 [Example 32, 5-Oxazol-5-yl-pyrazine-2-carboxylic acid [1-(3-tert-butyl-[1,2,4]oxadiazol-5-yl)-piperidin-4-yl]-cyclopropyl-amide]"

# Target: T2, mutant form of the human GPR119 receptor (Homo sapiens, UniProt Q8TDV5, S329A/T327A)
# T2 construct: expressed in transfected cells
# T2 sequence (Q8TDV5 with tags, fused parts or gaps T327A/S329A): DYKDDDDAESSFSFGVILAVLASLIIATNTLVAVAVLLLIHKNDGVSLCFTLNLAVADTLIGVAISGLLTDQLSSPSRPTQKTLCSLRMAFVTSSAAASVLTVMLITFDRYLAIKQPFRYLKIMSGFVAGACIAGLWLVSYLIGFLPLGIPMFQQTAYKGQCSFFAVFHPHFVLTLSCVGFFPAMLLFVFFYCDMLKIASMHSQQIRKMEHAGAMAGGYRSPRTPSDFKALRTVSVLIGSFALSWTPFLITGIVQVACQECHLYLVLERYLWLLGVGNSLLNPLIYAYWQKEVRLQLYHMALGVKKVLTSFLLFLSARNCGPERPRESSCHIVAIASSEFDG
# Assay: LANCE cAMP-384 assay in HEK293 cells stably expressing a mutant form of the human GPR119 receptor
# Format: cell-based
# Settings: cAMP accumulation, GPR119 stable HEK293 cells, LANCE kit, 20 min at 37° C.
# Method: Quantitative detection of cAMP accumulation from cells expressing human GPR119 receptor is achieved using Perkin Elmer's LANCE cAMP-384 Kit (Cat#AD0264) according to the manufacturer's protocol. Briefly, HEK293 cells stably expressing a mutant form of the human GPR119 receptor as assay tool (Methionine 1 replaced with the amino acid sequence […], and T327 & S329 changed to alanines; SEQ ID No. 1) are grown to 50-70% confluency in cell culture media (DMEM, 10% heat inactivated Fetal Bovine Serum, 50 I.U./mL penicillin, 50 μg/mL streptomycin, 10 mM HEPES, 20 μg/mL G418 Sulfate). On the day of the assay, GPR119 stable HEK293 cells are lifted from the tissue culture plate and 1000 cells/well are incubated along with various concentrations of test compounds for 20 min at 37° C. Detection Buffer (50 mM HEPES, 10 mM calcium chloride, 0.35% Triton X-100, 1 mg/mL BSA) containing cAMP-specific antibody is then added to all wells and allowed to equilibrate in the dark for 10 minutes at room temperature. Upon equilibration, Detection Buffer containing europium-labeled cAMP tracer complex is added to all wells and allowed to react for 1 hour at room temperature. After 1 hour, bound europium-labeled cAMP tracer is measured using a Perkin Elmer Envision plate reader. The quantity of cAMP generated in each well is derived from a standard curve. EC50 is determined using nonlinear regression analysis of the cAMP values over a range of agonist concentration (12 points spanning the range from 30 μM to 100 pM).
row,SMILES,EC50
1,"Cc1ncnn1-c1ccc(C(=O)N(C2CC2)[C@@H]2CCN(c3ncc(Cl)cn3)C[C@@H]2F)cn1 (single isomer, unassigned) [Example 93]",24 nM
2,"CCc1cnc(N2CC[C@@H](N(C(=O)c3cnc(-n4cnc(C)n4)cn3)C3CC3)[C@@H](F)C2)nc1 (single isomer, unassigned) [Example 89]",18 nM
3,"O=C(c1cnc(-n2cncn2)nc1)N(C1CC1)[C@@H]1CCN(c2ncc(Cl)cn2)C[C@@H]1F (single isomer, unassigned) [Example 96]",65 nM
4,"O=C(c1cnc(-n2cncn2)cn1)N(C1CC1)[C@@H]1CCN(c2ccc(C(F)(F)F)cn2)C[C@@H]1F (single isomer, unassigned) [Example 78]",9 nM
5,"Cc1nccn1-c1ccc(C(=O)N(C2CC2)[C@@H]2CCN(c3ccc(C(F)(F)F)cn3)C[C@@H]2F)cn1 (single isomer, unassigned) [Example 81]",34 nM
6,"Cc1ncnn1-c1ncc(C(=O)N(C2CC2)[C@@H]2CCN(c3ncc(Cl)cn3)C[C@@H]2F)cn1 (single isomer, unassigned) [Example 100]",136 nM
7,CCc1cnc(N2CCC(N(C(=O)c3cnc(-n4cncn4)cn3)C3CC3)CC2)nc1 [Example 60],29 nM
8,"Cc1nccn1-c1ncc(C(=O)N(C2CC2)[C@@H]2CCN(c3ncc(C(F)(F)F)cn3)C[C@@H]2F)cn1 (single isomer, unassigned) [Example 101]",5 nM
9,Cc1nccn1-c1ccc(C(=O)N(C2CC2)C2CCN(c3ncc(C(F)(F)F)cc3F)CC2)cn1 [Example 43],73 nM
10,"Cc1nccn1-c1cnc(C(=O)N(C2CC2)[C@@H]2CCN(c3ncc(Cl)cn3)C[C@@H]2F)cn1 (single isomer, unassigned) [Example 99]",18 nM
11,"Cc1nccn1-c1ccc(C(=O)N(C2CC2)[C@@H]2CCN(c3ncc(Cl)cn3)C[C@@H]2F)cn1 (single isomer, unassigned) [Example 97]",32 nM
12,Cc1nccn1-c1ccc(C(=O)N(C2CC2)C2CCN(c3nc(C(C)C)no3)CC2)cn1 [Example 51],593 nM
13,CCc1cnc(N2CCC(N(C(=O)c3cnc(-n4cncn4)nc3)C3CC3)CC2)nc1 [Example 61],98 nM
14,CCc1cnc(N2CCC(N(C(=O)c3cnc(-n4cnc(C)n4)cn3)C3CC3)CC2)nc1 [Example 62],185 nM
15,O=C(c1cnc(-n2cncn2)cn1)N(C1CC1)C1CCN(c2ncc(C(F)(F)F)cc2F)CC1 [Example 46],78 nM
16,CCc1cnc(N2CCC(N(C(=O)c3cn(-c4ccc(S(C)(=O)=O)cc4F)cn3)C3CC3)CC2)nc1 [Example 105],233 nM
17,"O=C(c1cnc(-n2cncn2)nc1)N(C1CC1)[C@@H]1CCN(c2ncc(C(F)(F)F)cn2)C[C@@H]1F (single isomer, unassigned) [Example 102]",50 nM
18,"CCc1cnc(N2CC[C@@H](N(C(=O)c3ccc(-n4ccnc4C)nc3)C3CC3)[C@@H](F)C2)nc1 (single isomer, unassigned) [Example 88]",29 nM
19,Cc1nccn1-c1cnc(C(=O)N(C2CC2)C2CCN(c3nc(C(C)C)no3)CC2)cn1 [Example 53],808 nM
20,CC(C)c1noc(N2CCC(N(C(=O)c3cnc(-n4cncn4)cn3)C3CC3)CC2)n1 [Example 54],812 nM
21,"CCc1cnc(N2CC[C@@H](N(C(=O)c3cn(-c4ccc(S(C)(=O)=O)cc4F)c(C)n3)C3CC3)[C@@H](F)C2)nc1 (single isomer, unassigned) [Example 111]",1610 nM
22,CCc1cnc(N2CCC(N(C(=O)c3ccc(-n4ccnc4C)nc3)C3CC3)CC2)nc1 [Example 58],553 nM
23,"Cc1ncnn1-c1ccc(C(=O)N(C2CC2)[C@H]2CCN(c3ccc(C(F)(F)F)cn3)C[C@H]2F)cn1 (single isomer, unassigned) [Example 69]",496 nM
24,"O=C(c1cnc(-n2cncn2)nc1)N(C1CC1)[C@@H]1CCN(c2ccc(C(F)(F)F)cn2)C[C@@H]1F (single isomer, unassigned) [Example 80]",111 nM
